Paper PMC3618206, “High-throughput fluorescent-based NKCC functional assay in adherent epithelial cells” (BMC Cell Biology, 2013)

Tested on: T1, c-NKCC2 (chimeric NKCC1-NKCC2 construct)
T1 construct: gene SLC12A2; single polypeptide chimera: NKCC1 backbone with whole NKCC1 transmembrane domain, C-terminal apical sorting domain exchanged for that of mammalian NKCC2 isoform B; N-terminal HA tag; stably expressed in LLC-PK1 cells; NKCC2 part possibly rabbit; with Solute carrier family 12 member 1 (isoform B, C-terminal apical sorting domain)
Experiment: FluxOR Tl+ influx fluorescence, initial rate, FlexStation, stably transfected LLC-PK1 cells
Format: cell-based
Details: external Cl- 3-135 mM (gluconate replacement); co-substrates Na+ and Tl+ (2 mM Tl2SO4), K+-free, pH 7.4; single-site fit; Cl- starved cells

Cl [Cl^-]
Km: 23.4 mM
